{"source": "paper PMC12452952", "about": "“Subtype-specific structural features of the hearing loss–associated human P2X2 receptor” (Proceedings of the National Academy of Sciences of the …, 2025)", "molecular_target": "T1, human P2X2 receptor (hP2X2R) (Homo sapiens, UniProt Q9UBL9)", "T1 construct": "gene P2RX2; full-length wild-type", "T1 sequence (Q9UBL9 1-471)": "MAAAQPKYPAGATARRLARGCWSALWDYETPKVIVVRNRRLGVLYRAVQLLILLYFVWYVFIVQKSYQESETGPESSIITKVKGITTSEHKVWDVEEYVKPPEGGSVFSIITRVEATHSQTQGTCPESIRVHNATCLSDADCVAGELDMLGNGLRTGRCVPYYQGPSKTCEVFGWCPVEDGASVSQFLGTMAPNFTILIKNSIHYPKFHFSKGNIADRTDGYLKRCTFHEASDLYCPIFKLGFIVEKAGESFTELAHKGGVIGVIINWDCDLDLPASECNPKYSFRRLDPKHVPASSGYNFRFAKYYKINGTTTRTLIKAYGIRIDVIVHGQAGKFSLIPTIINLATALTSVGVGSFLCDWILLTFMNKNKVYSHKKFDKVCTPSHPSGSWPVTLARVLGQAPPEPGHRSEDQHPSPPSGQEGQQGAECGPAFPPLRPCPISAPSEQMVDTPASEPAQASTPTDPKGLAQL", "test": "cryo-EM structures of ATP-bound homotrimer ([…] and […] Å); EC50 by two-electrode voltage clamp in Xenopus oocytes (divalent-free)", "assay_type": "cell-based"}
{"smiles": "Nc1ncnc2c1ncn2[C@@H]1O[C@H](COP(=O)(O)OP(=O)(O)OP(=O)(O)O)[C@@H](O)[C@H]1O", "note": "[ATP]", "values": [{"measurement": "EC50", "result": "156 ± 96", "unit": "nM"}]}
